According to patent US9546179B2, “Heterocycle amido alkyloxy substituted quinazoline derivative and use thereof” (priority 2011, dated 2017):

Legend:
[1] = target: T1, receptor tyrosine kinase EGFR (Homo sapiens, UniProt P00533); assay: Inhibitory effect on receptor tyrosine kinase EGFR (ELISA, Poly(Glu, Tyr)4:1, PY99 antibody); assay type: biochemical; conditions: ATP 4 μM, 1 hour at 37° C.
T1 construct: purchased Shanghai 3bio Technology Co., Ltd. Lot No. 4018780925
Description: Poly(Glu, Tyr)4:1 was diluted into 100 μg/ml by PBS without potassium. Enzyme label plate was coated with 37 μl/well at 37° C. overnight,
The liquid in the wells was removed. The plate was rinsed by T-PBS for 5 minutes, and dried at 37° C. after repeated 3 times.
The testing sample was diluted to the concentration concerned by reaction buffer solution, and added into the wells of the coated enzyme label plate. The concentration diluted should realize 1.0000 μg/ml, 0.1250 μg/ml, 0.0156 μg/ml, 0.00195 μg/ml and 0.00024 μg/ml in the 100 μl reaction.
Adding in ATP solution (4 μM of final concentration) diluted by reaction buffer solution,
Finally, the tyrosine kinase diluted by reaction buffer solution was added, and forming the reaction with 100 μl total volume.
Meanwhile, negative control wells and enzyme-free control wells were prepared. The reaction was kept in the dark wet box for 1 hour at 37° C. The plate was rinsed by T-PBS for three times after the reaction ended, and blocked by 1% BSA […] for 30 min, and then, PY99 antibody (1:1000 diluted by 0.05% PBST with 1% BSA) was added in 100 μl/well. After incubated at 37° C. for 30 minutes, the plate was rinsed by T-PBS for three times, and the goat anti-mouse IgG marked with HRP (1 mg/ml 1:1000 diluted by 0.05% PBST with 1% BSA) was then added in 100 μl/well. After incubated at 37° C. for 30 minutes, the plate was rinsed by T-PBS for three times.
Colorimetric solution OPD was added in 100 μl/well for 20 minutes' reaction in the dark side at the room temperature. Colorimetric substrate solution OPD was the solution of 0.1 mol/L citric acid-disodium hydrogen phosphate buffer (pH 5.0) with 20 mmol/L OPD and 12 mmol/L H2O2 (freshly prepared when using).
50 μl of 2M H2SO4 (2 mol/L sulfuric acid containing 0.1 mol/L sodium sulfate) was added in to terminate the reaction, and the A492 value was read with adjustable wavelength micro late enzyme-labeling instrument VERSAmax.
The inhibition rate of samples is calculated by the following formula: […]

[2] = system: Human lung cancer cells (A549); assay: Anticancer effect in vitro on A549 cells (MTT, GI50); assay type: cell-based; conditions: A549, 72 hours
Description: The inhibitory effect on the cancer cells of the compounds prepared in Example 1-Example 13, Example 20, Example 48, Example 49 and Example 57 was determined in vitro using cancer cells. The results are shown in table 2, and the specific detection methods are as follows:
Human lung cancer cells were (A549, purchased from Shanghai FuMeng Gene Bio-technology Co., Ltd.) cultured in DMEM containing 2 m M/L-glutamine and 10% FBS, and inoculated in 96-well plate, 200 μL/well and 2000 cells per well; the plate was preincubated for 24 hours under the condition of 5% CO2 and 100% relative humidity at 37° C., allowing for cell adherence.
When the cells adhered, the supernatant was removed, and 200 μL drug-containing culture medium was added with different concentration of compounds into each well (in concentration of 20 μg/ml, 12.5 µg/ml, 6.25 μg/ml, […], 1.5625 μg/ml and 0.78125 μg/ml), 3 multiple wells were set up for each drug concentration as well as blank control (cell culture medium without cells), and drug-free control (with no drugs, filled with complete medium in equal amount only), cultured for 72 hours under the condition of 5% CO2 incubator at 37° C. (100% relative humidity).
After the culture ended, the supernatant was carefully removed, and adding 200 μl DMEM culture medium containing 3% FBS with 500 μg/ml MTT into each well, and culturing for 4 hours under the condition of 5% CO2 incubator at 37° C. (100% relative humidity). After the supernatant was discarded, 150 μL DMSO was added in each well for solving. the GI50 value was measured by detecting the absorbance in the 570 nm wavelength.

T1 sequence (P00533 25-1210): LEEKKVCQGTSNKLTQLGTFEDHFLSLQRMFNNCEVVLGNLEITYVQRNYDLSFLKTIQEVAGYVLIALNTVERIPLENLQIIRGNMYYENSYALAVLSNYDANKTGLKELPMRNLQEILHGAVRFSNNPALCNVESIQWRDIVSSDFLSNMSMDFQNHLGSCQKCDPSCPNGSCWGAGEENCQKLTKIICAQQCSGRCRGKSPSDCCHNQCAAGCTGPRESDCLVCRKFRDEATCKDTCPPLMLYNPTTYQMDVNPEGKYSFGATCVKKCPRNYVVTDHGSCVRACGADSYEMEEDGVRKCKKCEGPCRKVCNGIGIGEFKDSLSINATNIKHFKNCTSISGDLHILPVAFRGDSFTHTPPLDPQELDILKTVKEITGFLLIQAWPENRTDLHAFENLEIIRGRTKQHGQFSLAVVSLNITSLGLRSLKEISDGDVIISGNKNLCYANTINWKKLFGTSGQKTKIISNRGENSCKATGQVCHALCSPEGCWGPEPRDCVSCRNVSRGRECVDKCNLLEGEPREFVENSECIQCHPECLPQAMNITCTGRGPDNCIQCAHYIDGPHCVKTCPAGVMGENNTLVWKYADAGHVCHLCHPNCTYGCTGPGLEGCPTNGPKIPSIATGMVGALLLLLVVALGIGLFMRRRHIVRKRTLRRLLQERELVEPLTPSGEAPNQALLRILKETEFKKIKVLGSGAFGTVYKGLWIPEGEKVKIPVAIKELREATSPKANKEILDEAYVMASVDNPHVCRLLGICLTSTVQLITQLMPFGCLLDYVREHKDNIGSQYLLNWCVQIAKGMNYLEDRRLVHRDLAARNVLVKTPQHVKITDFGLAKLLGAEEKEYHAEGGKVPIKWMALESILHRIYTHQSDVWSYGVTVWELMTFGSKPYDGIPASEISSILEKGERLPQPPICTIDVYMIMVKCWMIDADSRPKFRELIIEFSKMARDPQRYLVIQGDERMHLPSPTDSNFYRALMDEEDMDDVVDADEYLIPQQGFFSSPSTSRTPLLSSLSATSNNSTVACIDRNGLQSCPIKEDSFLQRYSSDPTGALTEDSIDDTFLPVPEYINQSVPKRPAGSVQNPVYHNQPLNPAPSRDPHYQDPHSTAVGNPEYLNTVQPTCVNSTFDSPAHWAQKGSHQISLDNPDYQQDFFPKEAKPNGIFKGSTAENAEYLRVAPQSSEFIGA

COc1cc2ncnc(Nc3ccc(F)c(Cl)c3)c2cc1OCCN1CC2(CNC(=O)C2)C1 [Example 57, 4-(3′-chloro-4′-fluorophenylamino)-6-[2-(2,6-diazaspiro[3.4]octane-7-ketone-2-yl)-oxethyl]-7-m ethoxyquinazoline]
IC50 [1]: > 1000 nM | GI50 [2]: 23800 nM

COc1cc2ncnc(Nc3ccc(F)c(Cl)c3)c2cc1OCCCN1CCC2(CC1)COC2 [Example 5, 4-(3′-chloro-4′-fluorophenylamino)-6-[3-(2-oxa-7-azaspiro[3.5]nonane-7-yl)-propoxy]-7-methoxyquinazoline]
IC50 [1]: 10 to 100 nM | GI50 [2]: 8600 nM

COc1cc2ncnc(Nc3ccc(F)c(Cl)c3)c2cc1OCCCN1CC2(COC2)C1 [Example 1, 4-(3′-chloro-4′-fluorophenylamino)-6-[3-(2-oxa-6-azaspiro[3.3]heptane-6-yl)-propoxy]-7-methoxyquinazoline]
IC50 [1]: 10 to 100 nM | GI50 [2]: 39700 nM

COc1cc2ncnc(Nc3ccc(F)c(Cl)c3)c2cc1OCCN1CCC2(COC2)C1 [Example 3, 4-(3′-chloro-4′-fluorophenylamino)-6-[2-(2-oxa-6-azaspiro[3.4]octane-6-yl)-oxethyl]-7-methoxyquinazoline]
IC50 [1]: 100 to 1000 nM | GI50 [2]: 10200 nM

COc1cc2ncnc(Nc3ccc(F)c(Cl)c3)c2cc1OCCN1C2CCC1COC2 [Example 13, 4-(3′-chloro-4′-fluorophenylamino)-6-[2-(3-oxa-8-azabicyclo[3.2.1]octane-8-yl)-oxethyl]-7-methoxyquinazoline]
IC50 [1]: 10 to 100 nM | GI50 [2]: 28800 nM

C#Cc1cccc(Nc2ncnc3cc(OC)c(OCCCN4CC5(C4)CN(C)C(=O)O5)cc23)c1 [Example 49]
IC50 [1]: 0.1 to 10 nM | GI50 [2]: 21000 nM

COc1cc2ncnc(Nc3ccc(F)c(Cl)c3)c2cc1OCCN1CCC2(CCOCC2)C1 [Example 10, 4-(3′-chloro-4′-fluorophenylamino)-6-[2-(8-oxa-2-azaspiro[4.5]decane-2-yl)-oxethyl]-7-methoxyquinazoline]
IC50 [1]: 10 to 100 nM | GI50 [2]: 35200 nM

COc1cc2ncnc(Nc3cc(Cl)ccc3F)c2cc1OCCCN1CC[C@H]2OCC[C@H]21 (relative stereo) [Example 20, 4-(5′-chloro-2′-fluorophenylamino)-6-[3-(cis-hexahydrofuro[3,2-b]pyrrole-4-yl)-propoxy]-7-methoxyquinazoline]
IC50 [1]: 10 to 100 nM | GI50 [2]: 59500 nM

COc1cc2ncnc(Nc3ccc(F)c(Cl)c3)c2cc1OCCCN1CCC2(CCOC2)C1 (centres unmarked) [Example 7, 4-(3′-chloro-4′-fluorophenylamino)-6-[3-(2-oxa-7-azaspiro[4.4]nonane-7-yl)-propoxy]-7-methoxyquinazoline]
IC50 [1]: 10 to 100 nM | GI50 [2]: 15100 nM

C#Cc1cccc(Nc2ncnc3cc(OC)c(OCCCN4CC5(CNC(=O)O5)C4)cc23)c1 [Example 48]
IC50 [1]: 0.1 to 10 nM | GI50 [2]: 17800 nM

COc1cc2ncnc(Nc3ccc(F)c(Cl)c3)c2cc1OCCCN1CC2(CCOCC2)C1 [Example 4, 4-(3′-chloro-4′-fluorophenylamino)-6-[3-(7-oxa-2-azaspiro[3.5]nonane-2-yl)-propoxy]-7-methoxyquinazoline]
IC50 [1]: 10 to 100 nM | GI50 [2]: 8500 nM

C#Cc1cccc(Nc2ncnc3cc(OC)c(OCCCN4CCC5(CCN(C)C5=O)C4)cc23)c1 (centres unmarked) [Example 71, 4-(3′-ethynylphenylamino)-6-[3-(2-methyl-2,7-diazaspiro[4.4]-nonane-1-ketone-7-yl)-propoxy]-7-methoxyquinazoline]
IC50 [1]: 10 to 100 nM

C#Cc1cccc(Nc2ncnc3cc(OC)c(OCCCN4CC[C@H]5OCC[C@H]54)cc23)c1 (relative stereo) [Example 50, 4-(3′-ethynylphenylamino)-6-[3-(cis-hexahydrofuro[3,2-b]pyrrole-4-yl)-propoxy]-7-methoxyquinazoline]
IC50 [1]: 0.1 to 10 nM

COc1cc2ncnc(Nc3ccc(F)c(Cl)c3)c2cc1OCCCN1CC2CCC(C1)O2 [Example 93, 4-(3′-chloro-4′-fluorophenylamino)-6-[3-(8-oxa-3-aza-azabicyclo[3.2.1]octane-3-yl)-propoxy]-7-methoxyquinazoline]
IC50 [1]: 100 to 1000 nM

COc1cc2ncnc(Nc3ccc(F)c(Cl)c3)c2cc1OCCCN1CCC2(CC1)CNC(=O)C2 [Example 79]
IC50 [1]: 0.1 to 10 nM

C#Cc1cccc(Nc2ncnc3cc(OC)c(OCCCN4CCC5(COC5)C4)cc23)c1 [Example 75, 4-(3′-ethynylphenylamino)-6-[3-(2-oxa-6-azaspiro[3.4]octane-6-yl)-propoxy]-7-methoxyquinazoline]
IC50 [1]: 10 to 100 nM

COc1cc2ncnc(Nc3cc(Cl)ccc3F)c2cc1OCCCN1CCC2(CCC(=O)N2)CC1 [Example 25, 4-(5′-chloro-2′-fluorophenylamino)-6-[3-(1,8-diazaspiro[4.5]decane-2-ketone-8-yl)-propoxy]-7-methoxyquinazoline]
IC50 [1]: 10 to 100 nM

COc1cc2ncnc(Nc3cccc(Cl)c3F)c2cc1OCCCN1CCC2(CCNC2=O)C1 (centres unmarked) [Example 29, 4-(3′-chloro-2′-fluorophenylamino)-6-[3-(2,7-diazaspiro[4.4]nonane-1-ketone-7-yl)-propoxy]-7-methoxyquinazoline]
IC50 [1]: 10 to 100 nM

C#Cc1cccc(Nc2ncnc3cc(OC)c(OCCCN4CCC5(CCN(C)C5)C4)cc23)c1 (centres unmarked) [Example 68, 4-(3′-ethynylphenylamino)-6-[3-(7-methyl-2,7-diazaspiro[4.4]nonyl)-propoxy]-7-methoxyquinazoline]
IC50 [1]: 10 to 100 nM

COc1cc2ncnc(Nc3ccc(F)c(Cl)c3)c2cc1OCCN1CC2(C1)CN(C)C(=O)O2 [Example 61, 4-(3′-chloro-4′-fluorophenylamino)-6-[2-(7-methyl-5-oxa-2,7-diazaspiro[3.4]octane-6-ketone-2-yl)-oxethyl]-7-methoxyquinazoline]
IC50 [1]: 10 to 100 nM

COc1cc2ncnc(Nc3cccc(Cl)c3F)c2cc1OCCCN1CCC2(CC1)CNC(=O)O2 [Example 34, 4-(3′-chloro-2′-fluorophenylamino)-6-[3-(1-oxa-3,8-diazaspiro[4.5]decane-2-ketone-8-yl)-propoxy]-7-methoxyquinazoline]
IC50 [1]: 0.1 to 10 nM

COc1cc2ncnc(Nc3ccc(F)c(Cl)c3)c2cc1OCCCN1CCC2(CCN(C(C)=O)C2)C1 (centres unmarked) [Example 92, 4-(3′-chloro-4′-fluorophenylamino)-6-[3-(7-acetyl-2,7-diazaspiro[4.4]-nonane-2-yl)-propoxy]-7-methoxyquinazoline]
IC50 [1]: 10 to 100 nM

COc1cc2ncnc(Nc3cccc(Cl)c3F)c2cc1OCCCN1CCC2(C1)CN(C)C(=O)O2 (centres unmarked) [Example 35, 4-(3′-chloro-2′-fluorophenylamino)-6-[3-(3-methyl-1-oxa-3,7-diazaspiro[4.4]nonane-2-ketone-7-yl)-propoxy]-7-methoxycquinazoline]
IC50 [1]: 0.1 to 10 nM

COc1cc2ncnc(Nc3cc(Cl)ccc3F)c2cc1OCCCN1CCC2(COC2)C1 [Example 65]
IC50 [1]: 10 to 100 nM

COc1cc2ncnc(Nc3ccc(F)c(Cl)c3)c2cc1OCCN1CCC2(C1)CN(C)C(=O)O2 (centres unmarked) [Example 59, 4-(3′-chloro-4′-fluorophenylamino)-6-[2-(3-methyl-1-oxa-3,7-diazaspiro[4.4]nonane-2-ketone-7-yl)-oxethyl]-7-methoxyquinazoline]
IC50 [1]: 10 to 100 nM

C#Cc1cccc(Nc2ncnc3cc(OC)c(OCCCN4CCC5(CC4)CC(=O)N(C)C5)cc23)c1 [Example 73, 4-(3′-ethynylphenylamino)-6-[3-(2-methyl-2,8-diazaspiro[4.5]decane-3-ketone-8-yl)-propoxy]-7-methoxyquinazoline]
IC50 [1]: 10 to 100 nM

COc1cc2ncnc(Nc3ccc(F)c(Cl)c3)c2cc1OCCCN1CC2(CNC(=O)O2)C1 [Example 90, 4-(3′-chloro-4′-fluorophenylamino)-6-[3-(5-oxa-2,7-diazaspiro[3.4]octane-6-ketone-2-yl)-propoxy]-7-methoxyquinazoline]
IC50 [1]: 0.1 to 10 nM
